In US20240316249A1, “INJECTION FORMULATION COMPOSITION FOR USE AS FILLER OR DRUG CARRIER THROUGH CLICK CHEMISTRY REACTION” (AJOU UNIVERSITY INDUSTRY-ACADEMIC COOPERATION FOUNDATION, priority 2018, published 2024):
Entries after “also recorded” stand apart in the source; their conditions may differ.

Assay: Amount of doxorubicin in tumor and organs after injection
Format: in vivo, mice
Protocol: To perform a pharmacokinetic experiment, mice were sacrificed on day 1, day 6, day 12, and day 18. Organs (tumors, the intestines, lungs, kidneys, liver, spleen, and heart) were immediately acquired and photographed (FIG. 12). To measure the amount of doxorubicin remaining in each organ, each organ was homogenized in a 0.3N HCl/70% ethanol solution at 25,000 rpm to 30,000 rpm using a T 10 basic ULTRA-TURRAX Homogenizer (IKA-Werke GmbH & Co., Staufen, Germany), followed by incubation at 37° C. for 15 minutes. Each uniformly mixed sample was mixed with the same volume of 40% ZnSO4 and a mobile phase, and incubated again at 37° C. for 15 minutes. When the incubation was completed, each sample was centrifuged at 2,000 rpm for 10 minutes, and the amount of doxorubicin contained in the supernatant was calculated by referring to the standard calibration curve. The amount of doxorubicin contained in each organ was measured by a UV-visible Spectrophotometer (V-770, JASCO Inc., Tokyo, Japan) (FIG. 13).

Q: Which results are given for `COc1cccc2c1C(=O)c1c(O)c3c(c(O)c1C2=O)C[C@@](O)(C(=O)CO)C[C@@H]3O[C@H]1C[C@H](N)[C@H](O)[C@H](C)O1` [Dox, doxorubicin]?
A: occurrence of side effects due to the anticancer agent (Dox repeat injection (0.1 mg Dox)): induces various side effects; distribution of anticancer agent in tumor and organs (Dox repeat injection (0.1 mg Dox), compared to injection of doxorubicin alone (FIG. 13)): a large amount of anticancer agent is present in a tumor; also recorded: a large amount of anticancer agent remains in various organs; distribution of anticancer agent in tumor and organs (single injection 0.4 mg Dox, day 1, 6, 12, 18 (FIG. 13)): distributed more rapidly to various organs than a tumor
